Results taken from article doi:10.1101/2020.10.06.328336v1 (biorxiv, 2020).

How the values were obtained:
[1] = target: T1, SARS-CoV-2 RdRp complex (nsp12-nsp7-nsp8) (Severe acute respiratory syndrome coronavirus 2, UniProt P0DTD1); test: biochemical
[2] = target: T1, SARS-CoV-2 RdRp complex (nsp12-nsp7-nsp8); test: […]; format: biochemical

For `O=C(Nc1ccc(C(=O)Nc2ccc(C(=O)Nc3ccc(S(=O)(=O)O)c4cc(S(=O)(=O)O)cc(S(=O)(=O)O)c34)cc2)cc1)Nc1ccc(C(=O)Nc2ccc(C(=O)Nc3ccc(S(=O)(=O)O)c4cc(S(=O)(=O)O)cc(S(=O)(=O)O)c34)cc2)cc1` [NF279], the IC50 [1] was 50 nM.

For `Cc1ccc(C(=O)Nc2ccc(S(=O)(=O)O)c3cc(S(=O)(=O)O)cc(S(=O)(=O)O)c23)cc1NC(=O)c1cccc(NC(=O)Nc2cccc(C(=O)Nc3cc(C(=O)Nc4ccc(S(=O)(=O)O)c5cc(S(=O)(=O)O)cc(S(=O)(=O)O)c45)ccc3C)c2)c1` [suramin], the IC50 [2] was 260 nM.

Molecule `O=C(Nc1cc(C(=O)Nc2ccc(S(=O)(=O)O)cc2S(=O)(=O)O)cc(C(=O)Nc2ccc(S(=O)(=O)O)cc2S(=O)(=O)O)c1)Nc1cc(C(=O)Nc2ccc(S(=O)(=O)O)cc2S(=O)(=O)O)cc(C(=O)Nc2ccc(S(=O)(=O)O)cc2S(=O)(=O)O)c1` [NF449] has an IC50 [1] of 50 nM.

In the case of `O=C(Nc1cccc(C(=O)Nc2cc(C(=O)Nc3ccc(S(=O)(=O)O)c4cc(S(=O)(=O)O)cc(S(=O)(=O)O)c34)ccc2F)c1)Nc1cccc(C(=O)Nc2cc(C(=O)Nc3ccc(S(=O)(=O)O)c4cc(S(=O)(=O)O)cc(S(=O)(=O)O)c34)ccc2F)c1` [NF157], the IC50 [1] is reported as 50 nM.

`O=C(Nc1cc(C(=O)Nc2ccc(S(=O)(=O)O)cc2)cc(C(=O)Nc2ccc(S(=O)(=O)O)cc2)c1)Nc1cc(C(=O)Nc2ccc(S(=O)(=O)O)cc2)cc(C(=O)Nc2ccc(S(=O)(=O)O)cc2)c1` [NF110] was tested, and the IC50 [1] was 580 ± 40 nM.
